Series [1] is described as follows: Isoelectric point (PI) measurement. It is filed as physicochemical.
For series [2], the system named is SUM149PT human breast cancer cell line. Briefly: Cell saturation binding assay, SUM149PT. The note with it: 68Ga-labeled compound. As for the experimental part: (§1) (1) For the cell saturation binding assay, a total of 8 radiolabeled ligand concentrations were set at intervals within the anticipated range. For each concentration, there were 3 groups: the non-inhibition group, the first single inhibition group (FAP single inhibition group), and the second single inhibition group (CXCR4/GRPR/αvβ3 single inhibition group). For each concentration and each group, 3 replicate wells were established.
(§2) (2) Cells were plated into a 24-well plate according to the cell plating procedure described above.
(§3) (3) The original culture medium was removed from the 24-well plate. Then, 400 μL of 100 mg/mL skimmed milk solution was added to each well for blocking for one hour. After removing the skimmed milk solution, each of wells was washed three times by adding 400 μL of PBS solution. Subsequently, 146 μL of FBS-free medium was added to each well. Next, the non-inhibition group received 4 μL of cold PBS per well, while the first single inhibition group and the second single inhibition group received the following additions per well according to Table 4: 2 μL of non-radiolabeled first single inhibitor solution and 2 μL of cold PBS; 2 μL of non-radiolabeled second single inhibitor solution and 2 μL of cold PBS. The plate was then incubated at room temperature for one hour.
(§4) (4) The ligands were radiolabeled with 68Ga using the labeling method described previously. Different volumes of FBS-free medium were added to formulate the radioligand systems at corresponding concentrations. Then, 50 μL of the corresponding concentration of the radioligand system was added to each well.
(§5) (5) The supernatant was removed, and the wells were washed three times with 400 μL of PBS. 200 μL of IM NaOH solution was added to each well for cell lysis. […] Each well was washed once with 400 μL of PBS solution, and the washings were sequentially added to the corresponding radioimmunoassay tubes.
(§6) (6) Radioactivity in the cells was measured using a γ counter. The equilibrium dissociation constant (KD) was obtained by fitting the curve using nonlinear regression analysis in GraphPad Prism software. KD is the drug concentration that causes half of the maximum effect (50% receptor occupancy).

For series [3] the test system is unchanged. The series can be described thus: Cell uptake and inhibition assay, SUM149PT. It is filed as cell-based. The note with it: for cell uptake, comparison of non-inhibition, FAP single, CXCR4 single and dual inhibition groups (in words): FAPI-04 and T140 as inhibitors; for cell uptake over incubation time (in words): non-inhibition group, 15-120 minutes. As to the method:
(§7) The cell lines involved in the cell experiments in the test examples include: SUM149PT human breast cancer cell line, HUTU-80 human duodenal adenocarcinoma cell line, and U-118 MG human brain astrocytoma/glioblastoma cell line.
(§8) SUM149PT: Complete medium was formulated using DMEM high-glucose medium, 10% FBS, and a penicillin-streptomycin solution. The cells were cultured in a constant temperature incubator at 37° C. with 5% CO2. The culture medium was regularly replaced, and the cells were passaged. The culture medium was generally changed every 2 to 3 days. The growth of the tumor cells was observed daily under a microscope, including monitoring cell growth status, checking for adherence, examining cell morphology for any abnormalities, checking for contamination, and observing medium color for any abnormalities. Cells were passaged when they reached 80-90% confluence.
(§9) When cell confluence in the culture flask reached 80%, the cells were digested and centrifuged, and the supernatant was removed. An appropriate amount of medium was added to dilute so that each well contained 500 μL of medium for plating. After thorough mixing by pipetting, the cell suspension was seeded into a 24-well plate at a density of 5×10^5 cells per well. The plate was then placed into the incubator for continued growth. The cells were ready for cellular experiments when they reached 80% confluence.
(§10) (1) The cell uptake assay established four incubation time points: 15, 30, 60, and 120 minutes, respectively. For each time point, four groups were set up: non-inhibition group, a first single inhibition group (FAP single inhibition), a second single inhibition group (CXCR4/GRPR/αvβ3 single inhibition), and a dual inhibition group (FAP inhibitor+CXCR4/GRPR/αvβ3 inhibitor). Each group at each time point was set up with 3 triplicate wells.
as §2
(§11) (3) The original culture medium was removed from the 24-well plate. Then, 400 μL of 100 mg/mL skimmed milk solution was added to each well for blocking for one hour. After removing the skimmed milk solution, each of the wells was washed three times by adding 400 μL of PBS solution. Subsequently, 146 μL of FBS-free medium was added to each well. Next, the non-inhibition group received 4 μL of cold PBS per well, while the first single inhibition group, the second single inhibition group, and the dual inhibition group received the following additions per well according to Table 3: 2 μL of non-radiolabeled first single inhibitor solution and 2 μL of cold PBS: 2 μL of non-radiolabeled second single inhibitor solution and 2 μL of cold PBS; 2 μL of non-radiolabeled first single inhibitor solution (10 mM) and 2 μL of non-radiolabeled second single inhibitor solution (10 mM). The plate was incubated at room temperature for one hour.
(§12) (4) The ^68Ga- and ^177Lu-labeled radioactive ligands were formulated by adding FBS-free medium to achieve a radioligand system concentration of 20 nM. Then, 50 μL of this radioligand system was added to each well. Each group was incubated according to the designated time points: 15, 30, 60, and 120 minutes.
(5) After the incubation was complete, the supernatant was removed, and the wells were washed three times with 400 μL of PBS solution. Then, 200 μL of 1 M NaOH solution was added to each well for cell lysis. […] Each well was then washed once with 400 μL of PBS solution, and this wash solution was also added to the corresponding radioimmunoassay tubes.
(6) The radioactivity in the cells was measured using a γ counter. A bar graph was plotted using GraphPad Prism software. The inhibition rate for each inhibition group was calculated as follows: Inhibition Rate (%)=(1−[Radioactive Count of the Inhibition Group]/[Radioactive Count of the Non-inhibition Group])×100%. […]

Series [4] concerns U-118 MG human brain astrocytoma/glioblastoma cell line. The series can be described thus: Cell uptake and inhibition assay, U-118 MG. It is filed as cell-based. The note with it: for cell uptake over incubation time (in words): all groups, 15-120 minutes; for cell uptake, comparison of non-inhibition, FAP single, integrin αvβ3 single and dual inhibition groups (in words): at 30 minutes, FAPI-04 and RGD as inhibitors. As to the method: as §7
as §8, with “U-118 MG:” for “SUM149PT:”
as §9, §10, §2, §11, §12
(5) After the incubation was complete, the supernatant was removed, and the wells were washed three times with 400 μL of PBS solution. Then, 200 μL of 1 M NaOH solution was added to each well for cell lysis. […]
(6) The radioactivity in the cells was measured using a γ counter. […]

Series [5] has the same test system. The series can be described thus: Cell saturation binding assay, U-118 MG. The note with it: 68Ga-labeled compound. As for the experimental part: as §1, §2, §3, §4, §5, §6
Where [6] appears, read: FAPI-04 solution, read-out: KD value, First single inhibition group (FAP single inhibition).
Where [7] appears, read: T140 solution (CXCR4 inhibitor), read-out: KD value, Second single inhibition group (CXCR4/GRPR/αvβ3 single inhibition).
[8] abbreviates: read-out: KD value, Non-inhibition group.
Where [9] appears, read: conclusion from inhibition groups.
Where [10] appears, read: RGD solution (integrin αvβ3 inhibitor), read-out: KD value, Second single inhibition group (CXCR4/GRPR/αvβ3 single inhibition).

Where two headings read alike, the source gives them in different places.

Regarding `CN1C(=O)[C@@H](Cc2ccc(O)cc2)NC(=O)CNC(=O)[C@H](Cc2ccc3ccccc3c2)NC(=O)[C@H](CCCNC(=N)N)NC(=O)[C@H]1CCCNC(=O)c1ccc(CNC(=O)[C@H](CCCCNC(=O)CN2CCN(CC(=O)O)CCN(CC(=O)O)CCN(CC(=O)O)CC2)NC(=O)CCC(=O)NCCOCCOCC(=O)NCCOCCOCC(=O)N2CCN(CCCOc3ccc4nccc(C(=O)NCC(=O)N5CC(F)(F)C[C@H]5C#N)c4c3)CC2)cc1` [SDYD05, DOTA-FAPI-Pentixafor], the “PI range of series of peaks” value in series [1] (unlabeled compound) is 6.617-7.126. Further, the “KD values / binding affinity to the receptors (in words)” value (“KD values / binding affinity” for short) in series [2] is on record as “relatively low KD values”. For the same compound, the Kd in series [2] (setting [6]) stood at 0.373 ± 0.035 nM; in series [2] (setting [7]) it was 1.99 ± 0.312 nM; in series [2] (setting [8]) it was 0.217 ± 0.018 nM. In series [3], the “cell uptake, comparison of non-inhibition, FAP single, CXCR4 single and dual inhibition groups (in words)” value is given as “non-inhibition group exhibited the highest cell uptake, followed by the FAP single inhibition group, while the dual inhibition group showed the lowest uptake rate”. The “specific binding to CXCR4 protein (in words)” value in series [3] (setting [9]) was “can rapidly and efficiently bind specifically to the CXCR4 protein”. Further, in series [3] (setting [9]), the “specific binding to fibroblast activation protein (in words)” value is “bind specifically to fibroblast activation protein to a certain extent”. The “cell uptake over incubation time (in words)” value in series [3] is “slowly increased and reached a plateau from 15 to 120 minutes”.
Turning to `CCCCCC(=O)N[C@@H]1CSCc2cc(CSCCNC(=O)COCCOCCNC(=O)COCCOCCNC(=O)CSC3CC(=O)N(CCC(=O)N[C@H](CCCCNC(=O)CN4CCN(CC(=O)O)CCN(CC(=O)O)CCN(CC(=O)O)CC4)C(=O)NCc4ccc(C(=O)NCCC[C@@H]5C(=O)N[C@@H](CCCNC(=N)N)C(=O)N[C@@H](Cc6ccc7ccccc7c6)C(=O)NCC(=O)N[C@H](Cc6ccc(O)cc6)C(=O)N5C)cc4)C3=O)cc(c2)CSC[C@@H](C(=O)O)NC(=O)[C@H](Cc2ccccc2)NC(=O)[C@H](CCC(N)=O)NC(=O)C([C@@H](C)O)NC(=O)[C@@H]2CCCN2C(=O)[C@@H]2CCCN2C1=O` (stereo partly shown) [SDYD06], the “behaviour of sample prepared in pure water during isoelectric point measurement” value in series [1] (pure water) was “insoluble substance formed”. In series [2], the “KD values / binding affinity” value is “relatively low KD values”. For the same compound, the figures for the Kd in series [2] (setting [6]), in series [2] (setting [7]) and in series [2] (setting [8]) were 0.455 ± 0.056 nM, 0.173 ± 0.012 nM and 1.41 ± 0.213 nM, respectively. For the same compound, the “cell uptake, comparison of non-inhibition, FAP single, CXCR4 single and dual inhibition groups (in words)” value in series [3] is “from high to low, were as follows: non-inhibition group, FAP single inhibition group, CXCR4 single inhibition group, and dual inhibition group”. Also, the “cell uptake over incubation time (in words)” value in series [3] was “slowly increased and reached a plateau from 15 to 120 minutes”.
Regarding `N#C[C@@H]1CC(F)(F)CN1C(=O)CNC(=O)c1ccnc2ccc(OCCCN3CCN(C(=O)[C@H](CCCCNC(=O)CCN4C(=O)CC(SCC(=O)NCCOCCOCCOCCOCCC(=O)NCCCC[C@@H]5NC(=O)[C@@H](Cc6ccc(O)cc6)NC(=O)[C@H](CC(=O)O)NC(=O)CNC(=O)[C@H](CCCNC(=N)N)NC5=O)C4=O)NC(=O)CCC(C(=O)O)N4CCN(CC(=O)O)CCN(CC(=O)O)CCN(CC(=O)O)CC4)CC3)cc12` (stereo partly shown) [SDYD07], the “cell uptake over incubation time (in words)” value in series [4] is “increased significantly within the first 15 minutes, and then slowly increased”. Also, the “cell uptake, comparison of non-inhibition, FAP single, integrin αvβ3 single and dual inhibition groups (in words)” value in series [4] was “from high to low, were as follows: non-inhibition group, FAP single inhibition group, integrin αvβ3 single inhibition group, and dual inhibition group”. Also, in series [1] (unlabeled compound), the “Main peak's PI” value stood at 4.809. The “KD values / binding affinity” value in series [5] was “relatively low KD values”. Besides, the Kd was found to be 7.1 ± 1.06 nM in series [5] (setting [6]), 7.62 ± 0.923 nM in series [5] (setting [10]) and 10.5 ± 1.87 nM in series [5] (setting [8]).
As to `CCCCCC(=O)N[C@H]1CSCc2cc(CSCCNC(=O)[C@H](CCCCNC(=O)CCN3C(=O)CC(SCC(=O)NCCOCCOCCOCCOCCC(=O)NCCCC[C@@H]4NC(=O)[C@@H](Cc5ccc(O)cc5)NC(=O)[C@H](CC(=O)O)NC(=O)CNC(=O)[C@H](CCCNC(=N)N)NC4=O)C3=O)NC(=O)CCC(C(=O)O)N3CCN(CC(=O)O)CCN(CC(=O)O)CCN(CC(=O)O)CC3)cc(c2)CSC[C@@H](C(=O)O)NC(=O)[C@H](Cc2ccccc2)NC(=O)[C@H](CCC(N)=O)NC(=O)C([C@@H](C)O)NC(=O)[C@@H]2CCCN2C(=O)[C@@H]2CCCN2C1=O` (stereo partly shown) [SDYD08], in series [4], the “cell uptake over incubation time (in words)” value is “increased significantly within the first 15 minutes”. Moreover, in series [4], the “cell uptake, comparison of non-inhibition, FAP single, integrin αvβ3 single and dual inhibition groups (in words)” value is “from high to low, were as follows: non-inhibition group, FAP single inhibition group, integrin αvβ3 single inhibition group, and dual inhibition group”. For the same compound, the “specific binding to fibroblast activation protein and integrin αvβ3 (in words)” value in series [4] (setting [9]) is “can specifically bind to fibroblast activation protein and integrin αvβ3”. In series [1] (unlabeled compound), the “Main peak's PI” value is listed as 2.916. The “KD values / binding affinity” value in series [5] is “relatively low KD values”. Further, the Kd in series [5] (setting [6]) is 7.12 ± 0.558 nM; in series [5] (setting [10]) it was 10.5 ± 1.06 nM; in series [5] (setting [8]) it was 8.43 ± 0.475 nM.

For the origin of these results see patent US20260069728A1, “MULTI-TARGETING COMPOUND AND USE THEREOF” (Chengdu Shetai Medical Technology Co., Ltd., priority 2023, published 2026).
